Results published in US7449447B2, “Peptidomimetic NS3-serine protease inhibitors of hepatitis C virus” (priority 2003, dated 2008).
*1 amine or outer side, *2 acyl side, *3 side chain or, on linkers, in order; H or OH if unused. Where a SMILES comes first, the peptide text is derived from it. [ ]: non-standard residue; d: D form. The star is where a group is joined. Pro(3R,4S-CMe2) = CC1(C)[C@@H]2[C@@H](C(=O)O)NC[C@@H]21; X1 = CN(C[C@@H](N*)C(C)(C)C)S(C)(=O)=O; Abu(4,4-F2) = N[C@@H](CC(F)F)C(=O)O; Phe(ol) = N[C@H](CO)Cc1ccccc1; Phg = N[C@H](C(=O)O)c1ccccc1; Tle = CC(C)(C)[C@H](N)C(=O)O; CO = O=C([*:1])[*:2]; X2 = CC1(N*)CCCCC1

Biological target: T1, HCV NS3/NS4a serine protease (Hepatitis C virus genotype 1b, UniProt P26663)
T1 construct: amino terminus of the NS3 protease domain (amino acids 3-181) with a tetrapeptide linker; made in house; host or cells: E. coli
T1 sequence (P26663 1013-1207, looked up, natural form): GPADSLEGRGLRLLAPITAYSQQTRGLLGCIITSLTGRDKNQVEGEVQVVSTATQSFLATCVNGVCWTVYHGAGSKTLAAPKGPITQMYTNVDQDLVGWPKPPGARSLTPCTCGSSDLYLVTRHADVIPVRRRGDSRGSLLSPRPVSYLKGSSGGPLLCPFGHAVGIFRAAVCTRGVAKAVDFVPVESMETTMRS
Experiment: Spectrophotometric assay for HCV protease inhibitory activity (chromogenic ester substrates)
Assay type: biochemical, hepatitis C virus (strain 1b)
Conditions: single chain NS4A21-32-GSGS-NS3 3-181 protease, 30° C., pH 6.5
Protocol: Spectrophotometric Assay: Spectrophotometric assays for the HCV serine protease were performed on the inventive compounds by following the procedure described by R. Zhang et al., Analytical Biochemistry, 270 (1999) 268-275, the disclosure of which is incorporated herein by reference. The assay based on the proteolysis of chromogenic ester substrates is suitable for the continuous monitoring of HCV NS3 protease activity.
HCV NS3 protease (strain 1b) and its NS4A cofactor were constructed as a recombinant single chain protein. The NS4A cofactor domain (amino acid residues 21-32) was fused in frame to the amino terminus of the NS3 protease domain (amino acids 3-181) with a tetrapeptide linker. This NS4A 21-32-GSGS-NS33-181 construct was then expressed in E. coli and purified to >90% homogeneity. Kinetic parameters were determined and found to be the same as that of the full length NS31-631/NS4A1-54 protein complex produced in the baculovirus system (D. L. Sali et al, Biochemistry, 37 (1998) 3392-340). The details of the cloning, expression, purification and kinetic analysis of the of the single chain recombinant protease have been previously described (S. S. Taremi, et al. Protein Science. 7 (1998) 2143-2149.
Protein concentrations were determined by the Biorad dye method using recombinant HCV protease standards previously quantified by amino acid analysis. Prior to assay initiation, the enzyme storage buffer (50 mM sodium phosphate pH 8.0, 300 mM NaCl, 10% glycerol, 0.05% lauryl maltoside and 10 mM DTT) was exchanged for the assay buffer (25 mM MOPS pH 6.5, 300 mM NaCl, 10% glycerol, 0.05% lauryl maltoside, 5 μM EDTA and 5 μM DTT) utilizing a Biorad Bio-Spin P-6 prepacked column.
Protease Assay: HCV protease assays were performed at 30° C. using a 200 μl reaction mix in a 96-well microtiter plate. Assay buffer conditions (25 mM MOPS pH 6.5, 300 mM NaCl, 10% glycerol, 0.05% lauryl maltoside, 5 μM EDTA and 5 μM DTT) were optimized for the NS3/NS4A heterodimer (D. L. Sali et al, ibid.)). Typically, 100 μl mixtures of buffer, substrate and inhibitor were placed in wells and allowed to preincubate at 30° C. for approximately 3 minutes. One hundred μls of pre-warmed protease (30° C.) in assay buffer, was then used to initiate the reaction to produce a final concentration of 1.3 nM HCV). The Substrate cleavage by the protease was monitored over 60 minutes by measuring the release of the phenylazophenol (PAP) product at an absorbance of 370 nm with a continuous read every 30 seconds using a SpectraMax Plus microtiter plate reader (Molecular Devices, Sunnyvale, Calif.). Background hydrolysis of the substrate was subtracted. Inhibitors were tested over a range of concentrations (final DMSO concentration 4%)
Evaluation of Inhibitors The inhibition constants (Ki) for the competitive inhibitors were determined experimentally at fixed concentrations of enzyme and substrate by plotting vo/vi vs. inhibitor concentration ([I]o) according to the rearranged Michaelis-Menten equation for competitive inhibition kinetics: vo/vi=1+[I]o/(Ki(1+[S]o/Km)), where vo is the uninhibited initial velocity, vi is the initial velocity in the presence of inhibitor at any given inhibitor concentration ([I]o) and [S]o is the substrate concentration used. The resulting data were fitted using linear regression and the resulting slope, 1/(Ki(1+[S]o/Km), was used to calculate the Ki value.

| Compound | Ki (Ki, Table 3, rating) [nM] | Ki (Ki Rating, Table 2) [nM] | also measured |
| --- | --- | --- | --- |
| CN(C[C@@H](NC(=O)N[C@H](C(=O)N1C[C@H]2[C@@H]([C@H]1C(=O)N[C@@H](CC(F)F)C(=O)NCCN1CCOCC1)C2(C)C)C(C)(C)C)C(C)(C)C)S(C)(=O)=O [Example 240] | > 500 |  |  |
| CN(C[C@@H](NC(=O)N[C@H](C(=O)N1C[C@H]2[C@@H]([C@H]1C(=O)N[C@@H](CC(F)F)C(=O)NCCc1ccccc1)C2(C)C)C(C)(C)C)C(C)(C)C)S(C)(=O)=O [Example 258] | < 100 |  |  |
| CN(C[C@@H](NC(=O)N[C@H](C(=O)N1C[C@H]2[C@@H]([C@H]1C(=O)NC(CC(F)F)C(=O)NCCc1ccc(C(N)=O)cc1)C2(C)C)C(C)(C)C)C(C)(C)C)S(C)(=O)=O (some centres unmarked) [Example 128] |  | 100 to 500 |  |
| CCCOc1ccc(CCNC(=O)[C@H](CC(F)F)NC(=O)[C@@H]2[C@@H]3[C@H](CN2C(=O)[C@@H](NC(=O)N[C@H](CN(C)S(C)(=O)=O)C(C)(C)C)C(C)(C)C)C3(C)C)cc1Cl [Example 299] | < 100 |  |  |
| CN(C)C(=O)[C@@H](NC(=O)CNC(=O)[C@H](CC(F)F)NC(=O)[C@@H]1[C@@H]2[C@H](CN1C(=O)[C@@H](NC(=O)NC1(C)CCCCC1)C(C)(C)C)C2(C)C)c1ccccc1 [Example 172] ({X2-CO}-[Tle][Pro(3R,4S-CMe2)][Abu(4,4-F2)]G[Phg]-NMe2) |  | > 500 |  |
| C[C@H](NC(=O)[C@H](CC(F)F)NC(=O)[C@@H]1[C@@H]2[C@H](CN1C(=O)[C@@H](NC(=O)N[C@H](CN(C)S(C)(=O)=O)C(C)(C)C)C(C)(C)C)C2(C)C)[C@H](O)c1ccccc1 [Example 248] | < 100 |  |  |
| CCN(Cc1ccncc1)C(=O)[C@H](CC(F)F)NC(=O)[C@@H]1[C@@H]2[C@H](CN1C(=O)[C@@H](NC(=O)N[C@H](CN(C)S(C)(=O)=O)C(C)(C)C)C(C)(C)C)C2(C)C [Example 304] | > 500 |  |  |
| CN(C)CC(C)(C)CNC(=O)[C@H](CC(F)F)NC(=O)[C@@H]1[C@@H]2[C@H](CN1C(=O)[C@@H](NC(=O)N[C@H](CN(C)S(C)(=O)=O)C(C)(C)C)C(C)(C)C)C2(C)C [Example 241] | > 500 |  |  |
| CC1(NC(=O)N[C@H](C(=O)N2C[C@H]3[C@@H]([C@H]2C(=O)NC(CC(F)F)C(=O)O)C3(C)C)C(C)(C)C)CCCCC1 (some centres unmarked) [Example 156] |  | > 500 |  |
| COc1ccc(CCNC(=O)[C@H](CC(F)F)NC(=O)[C@@H]2[C@@H]3[C@H](CN2C(=O)[C@@H](NC(=O)N[C@H](CN(C)S(C)(=O)=O)C(C)(C)C)C(C)(C)C)C3(C)C)cc1O [Example 295] | < 100 |  |  |
| CN(C[C@@H](NC(=O)N[C@H](C(=O)N1C[C@H]2[C@@H]([C@H]1C(=O)N[C@@H](CC(F)F)C(=O)NCC1CCCCC1)C2(C)C)C(C)(C)C)C(C)(C)C)S(C)(=O)=O [Example 213] | > 500 |  |  |
| CN(C[C@@H](NC(=O)N[C@H](C(=O)N1C[C@H]2[C@@H]([C@H]1C(=O)N[C@@H](CC(F)F)C(=O)NCCCN1CCOCC1)C2(C)C)C(C)(C)C)C(C)(C)C)S(C)(=O)=O [Example 242] | > 500 |  |  |
| COC(=O)c1ccc(CCNC(=O)C(CC(F)F)NC(=O)[C@@H]2[C@@H]3[C@H](CN2C(=O)[C@@H](NC(=O)N[C@H](C(=O)OC(C)(C)C)C(C)C)C(C)(C)C)C3(C)C)cc1 (some centres unmarked) [Example 149] |  | > 500 |  |
| CCOC(=O)CCNC(=O)[C@H](CC(F)F)NC(=O)[C@@H]1[C@@H]2[C@H](CN1C(=O)[C@@H](NC(=O)OC(C)(C)C)C(C)(C)C)C2(C)C [Example 163] |  | > 500 |  |
| CN(C[C@@H](NC(=O)N[C@H](C(=O)N1C[C@H]2[C@@H]([C@H]1C(=O)N[C@@H](CC(F)F)C(=O)NCCc1ccc(N)cc1)C2(C)C)C(C)(C)C)C(C)(C)C)S(C)(=O)=O [Example 262] | < 100 |  |  |
| CC(NC(=O)[C@H](CC(F)F)NC(=O)[C@@H]1[C@@H]2[C@H](CN1C(=O)[C@@H](NC(=O)N[C@H](CN(C)S(C)(=O)=O)C(C)(C)C)C(C)(C)C)C2(C)C)c1ccccc1 (some centres unmarked) [Example 215] | > 500 |  |  |

| Compound | Ki (Ki, Table 3, rating) [nM] | Ki (Ki Rating, Table 2) [nM] | also measured |
| --- | --- | --- | --- |
| CC(CNC(=O)[C@H](CC(F)F)NC(=O)[C@@H]1[C@@H]2[C@H](CN1C(=O)[C@@H](NC(=O)N[C@H](CN(C)S(C)(=O)=O)C(C)(C)C)C(C)(C)C)C2(C)C)c1ccccc1 (some centres unmarked) [Example 219] | < 100 |  |  |
| COc1ccc(OC)c(CCNC(=O)[C@H](CC(F)F)NC(=O)[C@@H]2[C@@H]3[C@H](CN2C(=O)[C@@H](NC(=O)N[C@H](CN(C)S(C)(=O)=O)C(C)(C)C)C(C)(C)C)C3(C)C)c1 [Example 279] | 100 to 500 |  |  |
| CN(C[C@@H](NC(=O)N[C@H](C(=O)N1C[C@H]2[C@@H]([C@H]1C(=O)N[C@@H](CC(F)F)C(=O)NCCc1cccc(C(F)(F)F)c1)C2(C)C)C(C)(C)C)C(C)(C)C)S(C)(=O)=O [Example 282] | < 100 |  |  |
| CN(C[C@@H](NC(=O)N[C@H](C(=O)N1C[C@H]2[C@@H]([C@H]1C(=O)N[C@@H](CC(F)F)C(=O)NCCc1ccc(Cl)cc1)C2(C)C)C(C)(C)C)C(C)(C)C)S(C)(=O)=O [Example 250] | < 100 |  |  |
| CC(CCc1ccccc1)NC(=O)[C@H](CC(F)F)NC(=O)[C@@H]1[C@@H]2[C@H](CN1C(=O)[C@@H](NC(=O)N[C@H](CN(C)S(C)(=O)=O)C(C)(C)C)C(C)(C)C)C2(C)C (some centres unmarked) [Example 225] | > 500 |  |  |
| COC(=O)c1ccc(CCNC(=O)[C@H](CC(F)F)NC(=O)[C@@H]2[C@@H]3[C@H](CN2C(=O)[C@@H](NC(=O)N[C@H](C(=O)OCC2CC2)C(C)(C)C)C(C)(C)C)C3(C)C)cc1 [Example 143] |  | 100 to 500 |  |
| CC(C)[C@H](NC(=O)N[C@H](C(=O)N1C[C@H]2[C@@H]([C@H]1C(=O)N[C@@H](CC(F)F)C(=O)NCCC(=O)O)C2(C)C)C(C)(C)C)C(=O)O [Example 160] |  | > 500 |  |
| CN(C[C@@H](NC(=O)N[C@H](C(=O)N1C[C@H]2[C@@H](C1C(=O)N[C@@H](CC(F)F)C(=O)NCCc1ccc(C(N)=O)cc1)C2(C)C)C(C)(C)C)C(C)(C)C)S(C)(=O)=O (some centres unmarked) [Example 106] |  |  | Ki (Ki, Table 1): 27 nM |
| CC(C)[C@H](NC(=O)N[C@H](C(=O)N1C[C@H]2[C@@H]([C@H]1C(=O)N[C@@H](CC(F)F)C(=O)NCCc1ccc(C(=O)N(C)C)cc1)C2(C)C)C(C)(C)C)C(=O)O [Example 131] |  | 100 to 500 |  |
| CC(C)[C@H](NC(=O)N[C@H](C(=O)N1C[C@H]2[C@@H]([C@H]1C(=O)N[C@@H](CC(F)F)C(=O)NCCc1ccc(C(N)=O)cc1)C2(C)C)C(C)(C)C)C(N)=O [Example 144] |  | 100 to 500 |  |
| CN(C[C@@H](NC(=O)N[C@H](C(=O)N1C[C@H]2[C@@H]([C@H]1C(=O)N[C@@H](CC(F)F)C(=O)NCC1CCCO1)C2(C)C)C(C)(C)C)C(C)(C)C)S(C)(=O)=O (some centres unmarked) [Example 210] | > 500 |  |  |
| CC(C)[C@H](NC(=O)N[C@H](C(=O)N1C[C@H]2[C@@H]([C@H]1C(=O)N[C@@H](CC(F)F)C(=O)O)C2(C)C)C(C)(C)C)C(=O)OC(C)(C)C [Example 153] |  | > 500 |  |
| COC(=O)c1ccc(CCNC(=O)[C@H](CC(F)F)NC(=O)[C@@H]2C3C(CN2C(=O)[C@@H](NC(=O)N[C@H](CN(C)S(C)(=O)=O)C(C)(C)C)C2CCCCC2)C3(C)C)cc1 (some centres unmarked) [Example 101] |  |  | Ki (Ki, Table 1): 11 nM |
| CN(C[C@@H](NC(=O)N[C@H](C(=O)N1C[C@H]2[C@@H]([C@H]1C(=O)N[C@@H](CC(F)F)C(=O)N[C@H](CO)Cc1ccccc1)C2(C)C)C(C)(C)C)C(C)(C)C)S(C)(=O)=O [Example 249] ({X1-CO}-[Tle][Pro(3R,4S-CMe2)][Abu(4,4-F2)][Phe(ol)]) | > 500 |  |  |
| COc1ccccc1CNC(=O)[C@H](CC(F)F)NC(=O)[C@@H]1[C@@H]2[C@H](CN1C(=O)[C@@H](NC(=O)N[C@H](CN(C)S(C)(=O)=O)C(C)(C)C)C(C)(C)C)C2(C)C [Example 222] | > 500 |  |  |
| CN(C[C@@H](NC(=O)N[C@H](C(=O)N1C[C@H]2[C@@H]([C@H]1C(=O)N[C@@H](CC(F)F)C(=O)NS(=O)(=O)c1ccccc1)C2(C)C)C(C)(C)C)C(C)(C)C)S(C)(=O)=O [Example 257] | > 500 |  |  |
